The NIST ThermoML archive (doi:10.1021/je060411g)
Several values for one entry are separate records, joined by “and”; a condition that tells them apart may be missing. Equal values may be shown once.

Experiment: molar heat capacity at constant pressure
Details: 101.33 kPa

CCC(O)CC [3-pentanol]
Details	molar heat capacity at constant pressure
5.43 K, Crystal	0.93 J/K/mol
5.48 K, Crystal	0.88 J/K/mol
6.3 K, Crystal	1.18 J/K/mol
6.63 K, Crystal	1.23 J/K/mol
7.14 K, Crystal	1.52 J/K/mol
7.71 K, Crystal	1.85 J/K/mol
7.86 K, Crystal	1.91 J/K/mol
8.49 K, Crystal	2.31 J/K/mol
8.59 K, Crystal	2.43 J/K/mol
9.16 K, Crystal	2.77 J/K/mol
9.61 K, Crystal	3.11 J/K/mol
9.92 K, Crystal	3.43 J/K/mol
10 K, Crystal	3.5 J/K/mol
10.7 K, Crystal	4.04 J/K/mol
10.73 K, Crystal	4.07 J/K/mol
11.58 K, Crystal	4.8 J/K/mol
11.84 K, Crystal	5.04 J/K/mol
12.49 K, Crystal	5.7 J/K/mol
13.05 K, Crystal	6.15 J/K/mol
13.45 K, Crystal	6.53 J/K/mol
14.32 K, Crystal	7.35 J/K/mol
14.43 K, Crystal	7.58 J/K/mol
15 K, Crystal	8.21 J/K/mol
15.45 K, Crystal	8.54 J/K/mol
15.63 K, Crystal	8.59 J/K/mol
16.51 K, Crystal	9.66 J/K/mol
16.98 K, Crystal	10.07 J/K/mol
17.58 K, Crystal	10.69 J/K/mol
18.36 K, Crystal	11.47 J/K/mol
18.67 K, Crystal	11.8 J/K/mol
19.77 K, Crystal	13.01 J/K/mol and 12.97 J/K/mol
20 K, Crystal	13.21 J/K/mol
20.89 K, Crystal	14.13 J/K/mol
21.2 K, Crystal	14.45 J/K/mol
22.02 K, Crystal	15.43 J/K/mol
22.64 K, Crystal	16.12 J/K/mol
23.16 K, Crystal	16.63 J/K/mol
24.11 K, Crystal	17.73 J/K/mol
24.31 K, Crystal	18.04 J/K/mol
25 K, Crystal	18.82 J/K/mol
25.43 K, Crystal	19.3 J/K/mol
25.59 K, Crystal	19.51 J/K/mol
26.27 K, Crystal	19.88 J/K/mol
26.44 K, Crystal	21 J/K/mol
26.46 K, Crystal	20.69 J/K/mol
27.41 K, Crystal	20.88 J/K/mol
27.44 K, Crystal	20.97 J/K/mol
28.31 K, Crystal	21.71 J/K/mol
29.2 K, Crystal	22.65 J/K/mol
30 K, Crystal	23.56 J/K/mol
30.84 K, Crystal	24.51 J/K/mol
32.44 K, Crystal	26.27 J/K/mol
34.05 K, Crystal	27.98 J/K/mol
35 K, Crystal	28.96 J/K/mol
35.7 K, Crystal	29.65 J/K/mol
37.37 K, Crystal	30.89 J/K/mol
39.08 K, Crystal	32.33 J/K/mol
40 K, Crystal	33.19 J/K/mol
40.8 K, Crystal	33.94 J/K/mol
42.52 K, Crystal	35.56 J/K/mol
44.25 K, Crystal	37.13 J/K/mol
45 K, Crystal	37.81 J/K/mol
46 K, Crystal	38.7 J/K/mol
47.76 K, Crystal	40.3 J/K/mol
49.53 K, Crystal	41.89 J/K/mol
50 K, Crystal	42.29 J/K/mol
51.31 K, Crystal	43.33 J/K/mol
53.11 K, Crystal	44.7 J/K/mol
54.91 K, Crystal	46.08 J/K/mol
55 K, Crystal	46.14 J/K/mol
56.73 K, Crystal	47.47 J/K/mol
58.56 K, Crystal	48.81 J/K/mol
60 K, Crystal	49.88 J/K/mol
60.4 K, Crystal	50.18 J/K/mol
62.25 K, Crystal	51.52 J/K/mol
64.1 K, Crystal	52.82 J/K/mol
65 K, Crystal	53.44 J/K/mol
65.97 K, Crystal	54.11 J/K/mol
67.84 K, Crystal	55.41 J/K/mol
69.72 K, Crystal	56.67 J/K/mol
70 K, Crystal	56.86 J/K/mol
71.6 K, Crystal	57.95 J/K/mol
73.49 K, Crystal	59.18 J/K/mol
75 K, Crystal	60.13 J/K/mol
75.38 K, Crystal	60.37 J/K/mol
77.28 K, Crystal	61.55 J/K/mol
79.19 K, Crystal	62.78 J/K/mol
80 K, Crystal	63.27 J/K/mol
81.1 K, Crystal	63.93 J/K/mol
83.01 K, Crystal	65.07 J/K/mol
84.93 K, Crystal	66.32 J/K/mol
85 K, Crystal	66.36 J/K/mol
86.86 K, Crystal	67.47 J/K/mol
88.78 K, Crystal	68.55 J/K/mol
90 K, Crystal	69.21 J/K/mol
90.7 K, Crystal	69.61 J/K/mol
92.62 K, Crystal	70.75 J/K/mol
94.54 K, Crystal	71.9 J/K/mol
95 K, Crystal	72.17 J/K/mol
96.47 K, Crystal	72.98 J/K/mol
98.4 K, Crystal	74.27 J/K/mol
98.9 K, Glass	77.69 J/K/mol
99.63 K, Glass	77.09 J/K/mol
100 K, Crystal	76.23 J/K/mol
100.34 K, Crystal	75.65 J/K/mol
100.42 K, Crystal	75.69 J/K/mol
100.73 K, Crystal	75.56 J/K/mol
101.47 K, Glass	78.26 J/K/mol
101.88 K, Crystal	76.15 J/K/mol
103.84 K, Crystal	77.02 J/K/mol
104.37 K, Glass	79.98 J/K/mol
105 K, Crystal	79.46 J/K/mol
105.79 K, Crystal	78.1 J/K/mol
107.23 K, Glass	82.34 J/K/mol
107.74 K, Crystal	79.42 J/K/mol
109.68 K, Crystal	80.42 J/K/mol
110 K, Crystal	83.89 J/K/mol
110.1 K, Glass	84.56 J/K/mol
111.63 K, Crystal	81.37 J/K/mol
112.97 K, Glass	86.83 J/K/mol
113.58 K, Crystal	82.36 J/K/mol
115.54 K, Crystal	83.34 J/K/mol
115.84 K, Glass	89.3 J/K/mol
117.49 K, Crystal	84.31 J/K/mol
118.71 K, Glass	92.11 J/K/mol
119.44 K, Crystal	85.07 J/K/mol
120 K, Crystal	82.36 J/K/mol
121.39 K, Crystal	86.04 J/K/mol
121.59 K, Glass	95.01 J/K/mol
123.34 K, Crystal	87.47 J/K/mol
124.46 K, Glass	99.21 J/K/mol
125.29 K, Crystal	88.5 J/K/mol
127.24 K, Crystal	89.59 J/K/mol
127.34 K, Glass	104.26 J/K/mol
129.2 K, Crystal	90.65 J/K/mol
131.15 K, Crystal	91.7 J/K/mol
133.11 K, Crystal	92.81 J/K/mol
135.06 K, Crystal	93.83 J/K/mol
135.56 K, Liquid	147.41 J/K/mol
137.01 K, Crystal	94.96 J/K/mol
138.31 K, Liquid	149.27 J/K/mol
138.96 K, Crystal	95.99 J/K/mol
140.92 K, Crystal	97.1 J/K/mol
141.2 K, Liquid	149.61 J/K/mol
142.87 K, Crystal	98.24 J/K/mol
144.14 K, Liquid	149.91 J/K/mol
144.82 K, Crystal	99.32 J/K/mol
146.77 K, Crystal	100.55 J/K/mol
147.09 K, Liquid	150.15 J/K/mol
148.72 K, Crystal	101.76 J/K/mol
150.04 K, Liquid	150.36 J/K/mol
150.67 K, Crystal	103.08 J/K/mol
152.61 K, Crystal	104.4 J/K/mol
